Laboratory results from PMC7115507 (European Journal of Medicinal Chemistry, 2019).
“Also recorded” adds a separate entry of the source. Read-outs that look alike come from different tables or passages of the source.

Assays:
[1] = test system: CHIKV; conditions: cited from earlier work
[2] = test system: SARS-CoV; conditions: cited from earlier work
[3] = test system: MERS-CoV; conditions: cited from earlier work
[4] = test system: ZIKV; conditions: cited from earlier work
[5] = test system: CHIKV; format: cell-based, Chikungunya virus
[6] = test system: SARS-CoV; format: cell-based, severe acute respiratory syndrome coronavirus
[7] = test system: MERS-CoV; format: cell-based, Middle East respiratory syndrome coronavirus
[8] = test system: ZIKV; format: cell-based, Zika virus
[9] = test system: HSV-1; conditions: cited from earlier work
[10] = test system: HSV-2; conditions: cited from earlier work
[11] = target: SAH hydrolase (Homo sapiens, UniProt P23526); format: biochemical
[12] = test system: Vero E6 cells; experiment: Cytotoxicity; conditions: highest dose tested

Chain of SAH hydrolase (P23526 whole entry): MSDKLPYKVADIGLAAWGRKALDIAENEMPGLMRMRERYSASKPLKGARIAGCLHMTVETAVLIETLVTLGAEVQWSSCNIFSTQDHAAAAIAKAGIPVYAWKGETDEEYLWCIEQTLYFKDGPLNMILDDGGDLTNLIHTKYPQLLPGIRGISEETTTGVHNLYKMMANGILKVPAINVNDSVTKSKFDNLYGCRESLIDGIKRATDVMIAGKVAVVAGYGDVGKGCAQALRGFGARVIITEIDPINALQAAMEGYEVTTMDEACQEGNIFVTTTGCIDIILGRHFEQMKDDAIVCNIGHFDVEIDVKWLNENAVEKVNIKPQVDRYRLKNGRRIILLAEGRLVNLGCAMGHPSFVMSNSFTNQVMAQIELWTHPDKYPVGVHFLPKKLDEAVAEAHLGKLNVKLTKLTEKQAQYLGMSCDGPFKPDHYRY

Nc1ncnc2c1ncn2[C@H]1[C@H](O)[C@H](O)[C@@H](CO)C1(F)F [Compound 2b, 6,6′-difluoro-aristeromycin]
antiviral activity against CHIKV (in words) [1]: broad-spectrum antiviral activity
antiviral activity against CHIKV (in words) ([1]; listed as 2): potent antiviral activities
antiviral activity against SARS-CoV (in words) [2]: broad-spectrum antiviral activity; also recorded: potent antiviral activities
antiviral activity against MERS-CoV (in words) [3]: broad-spectrum antiviral activity; also recorded: potent antiviral activities
antiviral activity against ZIKV (in words) [4]: broad-spectrum antiviral activity
antiviral activity against ZIKV (in words) ([4]; listed as 2): potent antiviral activities

Nc1ncnc2c1ncn2[C@H]1[C@H](O)[C@H](O)[C@@H](CCO)C1(F)F [Compound 3d]
antiviral activity against CHIKV (in words) [5]: did not exhibit antiviral activity
antiviral activity against SARS-CoV (in words) [6]: did not exhibit antiviral activity
antiviral activity against MERS-CoV (in words) [7]: did not exhibit antiviral activity
antiviral activity against ZIKV (in words) [8]: did not exhibit antiviral activity

Nc1ncnc2c1ncn2C1CC(CCO)C(O)C1O (single isomer, unassigned; (-)) [(−)-homoaristeromycin]
activity against HSV-1 (in words) [9]: inactive
activity against HSV-2 (in words) [10]: inactive

Nc1ncnc2c1ncn2[C@H]1[C@H](O)[C@H](O)[C@@H](CO)[C@H]1F [Compound 2a, 6′-β-fluoro-aristeromycin]
antiviral activity against CHIKV (in words) [5]: inactive

OCC[C@@H]1[C@@H](O)[C@@H](O)[C@H](n2cnc3c(O)ncnc32)[C@@H]1F [Compound 3c, 9-((1S,2R,3R,4R,5S)-2-fluoro-4,5-dihydroxy-3-(2-hydroxyethyl)cyclopentyl)-1,9-dihydro-6H-purin-6-one]
inhibition of SAH hydrolase at the highest dose tested (in words) [11]: no inhibitory activity was observed

Nc1ncnc2c1ncn2[C@H]1[C@H](O)[C@H](O)[C@@H](CCO)[C@H]1F [Compound 3a, (1R,2S,3S,4R,5R)-3-(6-Amino-9H-purin-9-yl)-4-fluoro-5-(2-hydroxyethyl)cyclopentane-1,2-diol]
potency towards SAH hydrolase relative to 3d [11]: 5.6 times
selectivity index (SI) [5]: more than 2083
concentration up to which no noticeable cytotoxicity was seen [12]: > 250 µM
